Data reported in ChEMBL document CHEMBL1201862, “PubChem BioAssay data set” (2004).
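How tested: cells in 96-well plates exposed to compound for 48 hours at five concentrations. GI50: concentration for 50% inhibition of growth.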 The source made the active and inactive calls. Cut-off read from the data, not from the text of the source: active = GI50 up to about 1.1 µM and inactive = higher.

How the values were obtained:
Test in all cases: NCI tumour cell line growth inhibition, 48 h
HCC 2998 = test system: HCC 2998
A498 = test system: A498
LOX IMVI = test system: LOX IMVI
NCI-H522 = test system: NCI-H522
OVCAR-4 = test system: OVCAR-4
UACC-257 = test system: UACC-257
K562 = test system: K562
UACC-62 = test system: UACC-62
DU-145 = test system: DU-145
SN12C = test system: SN12C
NCI/ADR-RES = test system: NCI/ADR-RES
OVCAR-8 = test system: OVCAR-8
HCT-15 = test system: HCT-15
SK-MEL-2 = test system: SK-MEL-2
786-0 = test system: 786-0
CAKI-1 = test system: CAKI-1
RPMI-8226 = test system: RPMI-8226
EKVX = test system: EKVX
T47D = test system: T47D
PC-3 = test system: PC-3

Row | SMILES | GI50 (HCC 2998) | GI50 (A498) | GI50 (LOX IMVI) | GI50 (NCI-H522) | GI50 (OVCAR-4) | GI50 (UACC-257) | GI50 (K562) | GI50 (UACC-62) | GI50 (DU-145) | GI50 (SN12C) | GI50 (NCI/ADR-RES) | GI50 (OVCAR-8) | GI50 (HCT-15) [µM] | GI50 (SK-MEL-2) | GI50 (786-0) | GI50 (CAKI-1) | GI50 (RPMI-8226) | GI50 (EKVX) | GI50 (T47D) | GI50 (PC-3)
1 | CC(C)(CNC(=O)/C(Cl)=C(/Cl)C(=O)O)CNC(=O)/C(Cl)=C(/Cl)C(=O)O | > 100 µM (inactive) | > 100 µM (inactive) | 28.8 µM (inactive) | 29.1 µM (inactive) | > 100 µM (inactive) | > 100 µM (inactive) | 40.1 µM (inactive) | > 100 µM (inactive) | > 100 µM (inactive) | > 10 µM (inactive) | > 100 µM (inactive) | > 100 µM (inactive) | > 10 | > 100 µM (inactive) | > 100 µM (inactive) | > 100 µM (inactive) | 22.6 µM (inactive) | > 100 µM (inactive) | 92.7 µM (inactive) | > 100 µM (inactive)
2 | Cc1cccc2c1c(=O)c1c(O)c3c(cc1n2C)OC(C)(C)C=C3 | > 10 µM (inactive) | > 10 µM (inactive) | > 10 µM (inactive) | > 10 µM (inactive) | > 10 µM (inactive) | > 10 µM (inactive) | > 10 µM (inactive) | > 10 µM (inactive) | > 10 µM (inactive) | > 10 µM (inactive) | > 10 µM (inactive) | > 10 µM (inactive) | > 10 | > 10 µM (inactive) | > 10 µM (inactive) | > 10 µM (inactive) | > 10 µM (inactive) | > 10 µM (inactive) | > 10 µM (inactive) | > 10 µM (inactive)
3 | Oc1[nH]c(Nc2cccc(Cl)c2)nc2ncnc1-2 | 76.6 µM (inactive) | > 100 µM (inactive) | 80.7 µM (inactive) | > 100 µM (inactive) | > 100 µM (inactive) | > 100 µM (inactive) | 86.5 µM (inactive) | 63.7 µM (inactive) | 74.6 µM (inactive) | > 100 µM (inactive) | > 100 µM (inactive) | > 100 µM (inactive) | > 100 | 86.3 µM (inactive) | > 100 µM (inactive) | > 100 µM (inactive) | > 100 µM (inactive) | > 100 µM (inactive) | 44.9 µM (inactive) | 25.4 µM (inactive)
4 | CC(=O)N1CN2C(=O)CCC2c2cc(C)ccc21 (stereo not given) | > 100 µM (inactive) | > 100 µM (inactive) | > 100 µM (inactive) | > 100 µM (inactive) | > 100 µM (inactive) | > 100 µM (inactive) | > 100 µM (inactive) | > 100 µM (inactive) | > 100 µM (inactive) | > 100 µM (inactive) | > 100 µM (inactive) | > 100 µM (inactive) | > 100 | > 100 µM (inactive) | > 100 µM (inactive) | > 100 µM (inactive) | > 100 µM (inactive) | > 100 µM (inactive) | > 100 µM (inactive) | > 100 µM (inactive)
5 | CC(C)c1ccc(C(c2c(O)oc3ccccc3c2=O)c2c(O)oc3ccccc3c2=O)cc1 | 18.7 µM (inactive) | 17.7 µM (inactive) | 17.7 µM (inactive) | 20 µM (inactive) | 28.4 µM (inactive) | 21.3 µM (inactive) | 18.2 µM (inactive) | 15.5 µM (inactive) | 23.8 µM (inactive) | 19.4 µM (inactive) | 22.3 µM (inactive) | 19.1 µM (inactive) | 19.1 | 14.5 µM (inactive) | 21.1 µM (inactive) | 22.8 µM (inactive) | 17.7 µM (inactive) | 22.9 µM (inactive) | 31.2 µM (inactive) | 19 µM (inactive)
6 | Cc1cn(CCCC2=NCCCN2)c(=O)[nH]c1=O | > 100 µM (inactive) | > 100 µM (inactive) | > 100 µM (inactive) | > 100 µM (inactive) | > 100 µM (inactive) | > 100 µM (inactive) | > 100 µM (inactive) | > 100 µM (inactive) | > 100 µM (inactive) | > 100 µM (inactive) | > 100 µM (inactive) | > 100 µM (inactive) | > 100 | > 100 µM (inactive) | > 100 µM (inactive) | > 100 µM (inactive) | 79.1 µM (inactive) | > 100 µM (inactive) | > 100 µM (inactive) | > 100 µM (inactive)
7 | Cc1ccccc1OC(C)C(=O)NN1C(=O)CC(=O)N(c2ccccc2)C1=S (stereo not given) | 70.8 µM (inactive) | 36 µM (inactive) | 54.3 µM (inactive) | 77.4 µM (inactive) | > 100 µM (inactive) | 58.3 µM (inactive) | 41.4 µM (inactive) | 54.1 µM (inactive) | 51.1 µM (inactive) | 43.7 µM (inactive) | 61 µM (inactive) | 56.6 µM (inactive) | 51.3 | 72.9 µM (inactive) | 82.4 µM (inactive) | > 100 µM (inactive) | 43.3 µM (inactive) | 75.7 µM (inactive) | 35.3 µM (inactive) | 72.1 µM (inactive)
8 | OCCCNc1[nH]cnc2nncc1-2 | > 100 µM (inactive) | > 100 µM (inactive) | > 100 µM (inactive) | > 100 µM (inactive) | > 100 µM (inactive) | > 100 µM (inactive) | > 100 µM (inactive) | > 100 µM (inactive) | > 100 µM (inactive) | > 100 µM (inactive) | > 100 µM (inactive) | > 100 µM (inactive) | > 100 | > 100 µM (inactive) | > 100 µM (inactive) | 9.82 µM (inactive) | > 100 µM (inactive) | > 100 µM (inactive) | > 100 µM (inactive) | > 100 µM (inactive)
9 | C=CCc1cc(C(Cc2ccccc2)NC(C)C)cc(OCc2ccccc2)c1OCc1ccccc1 (stereo not given) | 13.7 µM (inactive) | 15.3 µM (inactive) | 14.8 µM (inactive) | 15.3 µM (inactive) | 17.4 µM (inactive) | 18.8 µM (inactive) | 16.8 µM (inactive) | 15.1 µM (inactive) | 16.2 µM (inactive) | 15.6 µM (inactive) | 16.3 µM (inactive) | 17 µM (inactive) | 16.3 | 18.6 µM (inactive) | 16.6 µM (inactive) | 15.7 µM (inactive) | 12.9 µM (inactive) | 16.2 µM (inactive) | 14.5 µM (inactive) | 15.3 µM (inactive)
10 | O=C1/C(=C\c2ccc([N+](=O)[O-])cc2)Sc2scc(-c3ccc(O)c(O)c3)[n+]21 | 4.97 µM (inactive) | > 10 µM (inactive) | 5.61 µM (inactive) | 1.76 µM (inactive) | 10.6 µM (inactive) | 6.87 µM (inactive) | 3.4 µM (inactive) | 5.61 µM (inactive) | 13.5 µM (inactive) | 4.5 µM (inactive) | 4.84 µM (inactive) | 4.45 µM (inactive) | 2.33 | 14.7 µM (inactive) | 3.73 µM (inactive) | 2.77 µM (inactive) | 2.55 µM (inactive) | 14.2 µM (inactive) | 12.8 µM (inactive) | 5.71 µM (inactive)
11 | Cc1c(-c2ccccc2)n[nH]c1NC1(C)C(=O)N(/N=C/c2ccccc2)N=C1c1ccccc1 (stereo not given) | > 100 µM (inactive) | > 83.4 µM (inactive) | > 100 µM (inactive) | > 100 µM (inactive) | 31.8 µM (inactive) | > 100 µM (inactive) | 6.15 µM (inactive) | > 100 µM (inactive) | > 100 µM (inactive) | > 19.9 µM (inactive) | 43.8 µM (inactive) | > 100 µM (inactive) | > 44.5 | > 84.1 µM (inactive) | > 100 µM (inactive) | > 100 µM (inactive) | 5.7 µM (inactive) | > 91.6 µM (inactive) | > 26 µM (inactive) | 24.9 µM (inactive)
